Measured values published in patent US5554631A, “5-pyrrolyl-6-halogeno-2-pyridylmethylsulfinyl benzimidazole derivatives” (Il-Yang Pharm. Co., Ltd., priority 1994, dated 1996).
Like-named read-outs stand apart in the source and are kept apart here.

What was measured:
[1] = target: T1, H^+ /K^+ -ATPase (Oryctolagus cuniculus, UniProt P27112); experiment: Inhibition of H+/K+-ATPase enzyme activity in vitro; type: biochemical, rabbit; conditions: 5 min pre-incubation at 37° C., 4 mM ATP
T1 construct: The gastric mucous membrane was removed from rabbit; from tissue; host or cells: rabbit gastric mucosa, microsomal fraction (77,000 xg)
T1 sequence (P27112 2-1035 limits assumed): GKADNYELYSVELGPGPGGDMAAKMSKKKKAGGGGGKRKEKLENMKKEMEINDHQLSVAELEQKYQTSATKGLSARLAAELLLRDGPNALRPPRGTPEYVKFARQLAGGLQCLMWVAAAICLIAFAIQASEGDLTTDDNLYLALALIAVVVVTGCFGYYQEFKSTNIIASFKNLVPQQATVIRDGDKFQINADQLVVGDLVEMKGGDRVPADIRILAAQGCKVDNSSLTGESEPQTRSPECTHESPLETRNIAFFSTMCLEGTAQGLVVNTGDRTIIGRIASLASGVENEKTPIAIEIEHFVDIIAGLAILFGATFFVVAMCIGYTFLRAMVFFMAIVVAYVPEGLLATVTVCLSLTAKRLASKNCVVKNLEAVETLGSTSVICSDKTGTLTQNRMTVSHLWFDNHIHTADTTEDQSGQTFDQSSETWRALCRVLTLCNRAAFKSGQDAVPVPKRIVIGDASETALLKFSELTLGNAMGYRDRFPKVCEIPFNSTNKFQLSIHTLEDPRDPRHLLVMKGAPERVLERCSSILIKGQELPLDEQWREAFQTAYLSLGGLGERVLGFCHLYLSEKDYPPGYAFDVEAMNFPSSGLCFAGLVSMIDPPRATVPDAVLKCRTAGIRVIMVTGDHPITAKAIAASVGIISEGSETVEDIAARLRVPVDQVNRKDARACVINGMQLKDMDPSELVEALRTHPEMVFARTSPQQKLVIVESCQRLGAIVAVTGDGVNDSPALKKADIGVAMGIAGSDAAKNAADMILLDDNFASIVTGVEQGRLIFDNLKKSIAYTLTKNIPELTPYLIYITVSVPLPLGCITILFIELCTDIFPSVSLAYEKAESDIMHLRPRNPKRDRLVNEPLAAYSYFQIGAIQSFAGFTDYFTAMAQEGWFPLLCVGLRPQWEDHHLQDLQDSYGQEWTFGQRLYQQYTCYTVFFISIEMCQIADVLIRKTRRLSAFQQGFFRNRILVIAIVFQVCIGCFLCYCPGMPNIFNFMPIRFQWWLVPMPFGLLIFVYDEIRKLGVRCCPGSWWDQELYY
T1 sequence (P18597 whole entry partner): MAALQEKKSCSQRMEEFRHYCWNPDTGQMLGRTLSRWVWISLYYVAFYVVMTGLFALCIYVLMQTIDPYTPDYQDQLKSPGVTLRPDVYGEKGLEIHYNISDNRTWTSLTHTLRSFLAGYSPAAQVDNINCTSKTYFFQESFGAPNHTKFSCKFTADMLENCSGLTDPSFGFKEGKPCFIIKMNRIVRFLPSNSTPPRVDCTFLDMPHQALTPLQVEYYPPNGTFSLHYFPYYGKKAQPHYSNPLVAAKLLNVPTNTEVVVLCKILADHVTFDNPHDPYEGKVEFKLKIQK
Protocol: The gastric mucous membrane was removed from rabbit and then centrifuged with 77,000 xg using a ultracentrifuge to separate the microsomal fraction which was used as the source of H^+ /K^+ -ATPase enzyme for this test. 60 μg of H^+ /K^+ -ATPase was pre-incubated with the sample (the compound according to the present invention) for 5 minutes at 37° C. and then 4 mM ATP as the substrate and 4 mM Mg^++, 20 mM K^+ as the cofactor were added thereto. Then, the amount of inorganic phosphorus thus produced was determined using a spectrophotometer at 660 nm and converted into the amount of protein according to Lowry method. […]

[2] = system: acidity; experiment: Inhibition of acidity (total acid output), Shay method; type: in vivo, SD male rats; conditions: intraduodenal, rat, 5 h; for Inhibition rate, acidity: vs normal group
Protocol: (§1) The specific test methods are as follows.
(§2) SD male rats (200±20 g) were fasted for 24 hours, except for water, and then anesthesized with ether. The abdomen of rats was incised and then the pylorus was ligated. The test compounds were suspended or dissolved in […] (carboxymethylcellulose) and injected into duodenum. After the abdomen was suctured, the rats were allowed to stand for 5 hours and then sacrificed with ether. The stomach was removed from rats and the gastric juices were collected. The gastric juice was centrifuged with 10,000×g for 10 minutes at 4° C. to remove the precipitate. The amount of gastric juice and acidity were determined using pH 7.0 end point assay with 0.02N NaOH and then the total acid output was calculated.

[3] = system: gastric juice secretion; experiment: Inhibition of gastric juice secretion, Shay method; type: in vivo, SD male rats; conditions: intraduodenal, rat, 5 h; for Inhibition rate, gastric juice secretion: vs normal group
Protocol: as §1, §2

[4] = rabbit gastric microsomal H+/K+-ATPase, read-out: IC50

Compound	IC50 [1, 4]	other results
COc1ccnc(CSc2nc3cc(-n4cccc4)c(F)cc3[nH]2)c1C [Compound 1, 2-[[(4-methoxy-3-methyl)-2-pyridinyl]methylthio]-5-(1H-pyrrol-1-yl)-6-fluoro-1H-benzimidazole]	420 µM	
COc1cc(C[S+]([O-])c2nc3cc(-n4cccc4)c(F)cc3[nH]2)ncc1C (centres unmarked) [Compound 3]	2000 µM	
COc1c(C)cnc(C[S+]([O-])c2nc3cc(-n4cccc4)c(F)cc3[nH]2)c1C (centres unmarked) [Compound 4]	430 µM	
CCOc1ccnc(C[S+]([O-])c2nc3cc(-n4cccc4)c(F)cc3[nH]2)c1C (centres unmarked) [Compound 5]	< 40 µM	Volume (inhibition of acidity) ([2]; 10 mg/kg): 21.85 ± 2.44 μEq/hr; Inhibition rate, acidity ([2]; 10 mg/kg): 66.78%; Volume (inhibition of acidity) ([2]; 30 mg/kg): 11.84 ± 4.00 μEq/hr; Inhibition rate, acidity ([2]; 30 mg/kg): 82.00%; Gastric juice volume ([3]; 10 mg/kg): 1.63 ± 0.04 ml/100 g BW; Inhibition rate, gastric juice secretion ([3]; 10 mg/kg): 42.40%; Gastric juice volume ([3]; 30 mg/kg): 1.21 ± 0.10 ml/100 g BW; Inhibition rate, gastric juice secretion ([3]; 30 mg/kg): 57.24%
CCOCCOc1ccnc(C[S+]([O-])c2nc3cc(-n4cccc4)c(F)cc3[nH]2)c1C (centres unmarked) [Compound 6, 2-[[(4-(2-ethoxyethoxy)-3-methyl)-2-pyridinyl]methylsulfinyl]-5-(1H-pyrrol-1-yl)-6-fluoro-1H-benzimidazole]	28 µM	
COc1ccnc(C[S+]([O-])c2nc3cc(-n4cccc4)c(F)cc3[nH]2)c1OC (centres unmarked) [Compound 7]	290 µM	
COc1ccnc(C[S+]([O-])c2nc3cc(-n4cccc4)c(F)cc3[nH]2)c1 (centres unmarked) [Compound 8]	1900 µM	
[O-][S+](Cc1ccccn1)c1nc2cc(-n3cccc3)c(F)cc2[nH]1 (centres unmarked) [Compound 9]	4700 µM	
Cc1cnc(C[S+]([O-])c2nc3cc(-n4cccc4)c(F)cc3[nH]2)c(C)c1OCC(F)(F)C(F)(F)F (centres unmarked) [Compound 11]	9300 µM	
Cc1c(OCC(F)(F)C(F)(F)F)ccnc1C[S+]([O-])c1nc2cc(-n3cccc3)c(F)cc2[nH]1 (centres unmarked) [Compound 12]	150 µM	
Cc1c(OCC(F)(F)C(F)(F)C(F)(F)F)ccnc1C[S+]([O-])c1nc2cc(-n3cccc3)c(F)cc2[nH]1 (centres unmarked) [Compound 13]		IC50 ([1]; IC50, rabbit gastric microsomal H+/K+-ATPase): 470 µM
Cc1c(OCC(F)(F)C(F)(F)F)ccnc1CS(=O)(=O)c1nc2cc(-n3cccc3)c(F)cc2[nH]1 [Compound 14]	5300 µM	
